Molecular target: R232-STING (Homo sapiens, UniProt Q86WV6, H232R)
Experiment: biochemical

Chain of R232-STING (Q86WV6 155-341 H232R): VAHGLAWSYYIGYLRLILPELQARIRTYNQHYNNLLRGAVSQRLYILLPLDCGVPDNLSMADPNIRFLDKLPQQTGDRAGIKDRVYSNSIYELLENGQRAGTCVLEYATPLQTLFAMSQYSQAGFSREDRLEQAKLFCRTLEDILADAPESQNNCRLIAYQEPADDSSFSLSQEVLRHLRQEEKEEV

SMILES | Ki [nM]
CCn1nc(C)cc1-c1n[nH]c(-c2cc(C(N)=O)cc3c2cnn3CCN2CCO[C@@H](C)[C@H]2C)n1 [ZZZ088, 1-{2-[(2S,3R)-2,3-dimethylmorpholin-4-yl]ethyl}-4-[3-(1-ethyl-3-methyl-1H-pyrazol-5-yl)-1H-1,2,4-triazol-5-yl]-1H-indazole-6-carboxamide] | > 990
CCn1nc(C)cc1-c1nnc(-c2cc(C(N)=O)cc3c2cnn3CC2(CN(C)C)CC2)[nH]1 [ZZZ028, 1-({1-[(dimethylamino)methyl]cyclopropyl}methyl)-4-[5-(1-ethyl-3-methyl-1H-pyrazol-5-yl)-4H-1,2,4-triazol-3-yl]-1H-indazole-6-carboxamide] | > 990
CCn1nc(C)cc1-c1nnc(-c2c(C(F)(F)F)c(C(N)=O)cc3c2cnn3C)[nH]1 [ZZZ044, 4-[5-(1-ethyl-3-methyl-1H-pyrazol-5-yl)-4H-1,2,4-triazol-3-yl]-1-methyl-5-(trifluoromethyl)-1H-indazole-6-carboxamide] | > 900
CCn1nc(C)cc1-c1nc(C(=O)O)c(-c2nc(C(N)=O)cc3c2cnn3C)o1 [ZZZ131, 5-(6-carbamoyl-1-methyl-1H-pyrazolo[4,3-c]pyridin-4-yl)-2-(1-ethyl-3-methyl-1H-pyrazol-5-yl)-1,3-oxazole-4-carboxylic acid] | > 990
CCn1nc(C)cc1-c1nnc(-c2cc(C(N)=O)cc3c2cnn3CC2CC3CNCC3C2)[nH]1 (stereo not shown) [ZZZ074, 4-[5-(1-ethyl-3-methyl-1H-pyrazol-5-yl)-4H-1,2,4-triazol-3-yl]-1-[(octahydrocyclopenta[c]pyrrol-5-yl)methyl]-1H-indazole-6-carboxamide] | > 990
CCn1nc(C)cc1-c1nnc(-c2cc(C(N)=O)cc3c2cnn3CC23CCCC2CNC3)[nH]1 (stereo not shown) [ZZZ060, 4-[5-(1-ethyl-3-methyl-1H-pyrazol-5-yl)-4H-1,2,4-triazol-3-yl]-1-[(hexahydrocyclopenta[c]pyrrol-3a(1H)-yl)methyl]-1H-indazole-6-carboxamide] | 541
CCn1nc(C)cc1-c1nnc(-c2cc(C(N)=O)cc3c2cnn3C[C@H]2CCCCN2C)[nH]1 [ZZZ032, 4-[5-(1-ethyl-3-methyl-1H-pyrazol-5-yl)-4H-1,2,4-triazol-3-yl]-1-{[(2R)-1-methylpiperidin-2-yl]methyl}-1H-indazole-6-carboxamide] | 967
CCn1nc(C)cc1-c1nnc(-c2cc(C(N)=O)cc3c2cnn3[C@H](C)C2CCN(C)CC2)[nH]1 (racemic) [ZZZ041, 4-[5-(1-ethyl-3-methyl-1H-pyrazol-5-yl)-4H-1,2,4-triazol-3-yl]-1-[(1R)-1-(1-methylpiperidin-4-yl)ethyl]-1H-indazole-6-carboxamide] | > 990
CCn1nc(C)cc1-c1nnc(-c2cc(C(N)=O)cc3nn(C)nc23)[nH]1 [ZZZ003, 7-[5-(1-ethyl-3-methyl-1H-pyrazol-5-yl)-4H-1,2,4-triazol-3-yl]-2-methyl-2H-benzotriazole-5-carboxamide] | > 990
CCn1nc(C)cc1-c1nnc(-c2cc(C(N)=O)cc3c2cnn3CCCCN2CCCCC2)[nH]1 [ZZZ043, 4-[5-(1-ethyl-3-methyl-1H-pyrazol-5-yl)-4H-1,2,4-triazol-3-yl]-1-[4-(piperidin-1-yl)butyl]-1H-indazole-6-carboxamide] | > 990
CCn1nc(C)cc1-c1nc(-c2nc(C(N)=O)cc3c2cnn3C)n(CCN(C)C)n1 [ZZZ125, 4-{1-[2-(dimethylamino)ethyl]-3-(1-ethyl-3-methyl-1H-pyrazol-5-yl)-1H-1,2,4-triazol-5-yl}-1-methyl-1H-pyrazolo[4,3-c]pyridine-6-carboxamide] | 512

Next, values leading:

Ki [nM] | SMILES
969 | CCn1nc(C)cc1-c1n[nH]c(-c2cc(C(N)=O)cc3c2cnn3CCN2CCO[C@@H](CO)C2)n1 (racemic) [ZZZ092, 4-[3-(1-ethyl-3-methyl-1H-pyrazol-5-yl)-1H-1,2,4-triazol-5-yl]-1-{2-[(2R)-2-(hydroxymethyl)morpholin-4-yl]ethyl}-1H-indazole-6-carboxamide]
> 990 | CCn1nc(C)cc1-c1nnc(-c2cc(C(N)=O)cc3c2cnn3[C@@H](C)CN2CCCC2)[nH]1 [ZZZ024, 4-[5-(1-ethyl-3-methyl-1H-pyrazol-5-yl)-4H-1,2,4-triazol-3-yl]-1-[(2S)-1-(pyrrolidin-1-yl)propan-2-yl]-1H-indazole-6-carboxamide]
714 | CCCN1CCC[C@@H]1Cn1ncc2c(-c3nnc(-c4cc(C)nn4CC)[nH]3)cc(C(N)=O)cc21 (racemic) [ZZZ025, 4-[5-(1-ethyl-3-methyl-1H-pyrazol-5-yl)-4H-1,2,4-triazol-3-yl]-1-{[(2R)-1-propylpyrrolidin-2-yl]methyl}-1H-indazole-6-carboxamide]
> 990 | CCn1nc(C)c(F)c1-c1nc(-c2nc(C(N)=O)cc3c2cnn3CCN2C[C@@H](C)O[C@@H](C)C2)n(C)n1 [ZZZ087, 1-{2-[(2R,6S)-2,6-dimethylmorpholin-4-yl]ethyl}-4-[3-(1-ethyl-4-fluoro-3-methyl-1H-pyrazol-5-yl)-1-methyl-1H-1,2,4-triazol-5-yl]-1H-pyrazolo[4,3-c]pyridine-6-carboxamide]
> 900 | Cc1nn(CC(CO)CO)c(-c2n[nH]c(-c3cc(C(N)=O)cc4c3cnn4C)n2)c1F [ZZZ049, 4-(3-{4-fluoro-1-[3-hydroxy-2-(hydroxymethyl)propyl]-3-methyl-1H-pyrazol-5-yl}-1H-1,2,4-triazol-5-yl)-1-methyl-1H-indazole-6-carboxamide]
> 990 | CCn1nc(C)cc1-c1nnc(-c2cc(C(N)=O)cc3c2cnn3C(C)CN2CCCCC2)[nH]1 (stereo not shown) [ZZZ026, 4-[5-(1-ethyl-3-methyl-1H-pyrazol-5-yl)-4H-1,2,4-triazol-3-yl]-1-[1-(piperidin-1-yl)propan-2-yl]-1H-indazole-6-carboxamide]
731 | CCn1nc(C)cc1-c1n[nH]c(-c2cc(C(N)=O)cc3c2cnn3CCN2C[C@@H]3C[C@H]2CO3)n1 [ZZZ113, 4-[3-(1-ethyl-3-methyl-1H-pyrazol-5-yl)-1H-1,2,4-triazol-5-yl]-1-{2-[(1S,4S)-2-oxa-5-azabicyclo[2.2.1]heptan-5-yl]ethyl}-1H-indazole-6-carboxamide]
> 990 | CCn1nc(C)cc1-c1nnc(-c2cc(C(N)=O)cc3c2cnn3CC2CC3(CNC3)C2)[nH]1 [ZZZ080, 1-[(2-azaspiro[3.3]heptan-6-yl)methyl]-4-[5-(1-ethyl-3-methyl-1H-pyrazol-5-yl)-4H-1,2,4-triazol-3-yl]-1H-indazole-6-carboxamide]
> 990 | CCn1nc(C)c(I)c1-c1nnc(-c2cc(C(N)=O)cc3c2cnn3C)[nH]1 [ZZZ053, 4-[5-(1-ethyl-4-iodo-3-methyl-1H-pyrazol-5-yl)-4H-1,2,4-triazol-3-yl]-1-methyl-1H-indazole-6-carboxamide]
501 | CCn1nc(CO)cc1-c1nc(-c2nc(C(N)=O)cc3[nH]ncc23)n(C)n1 [ZZZ082, 4-{3-[1-ethyl-3-(hydroxymethyl)-1H-pyrazol-5-yl]-1-methyl-1H-1,2,4-triazol-5-yl}-1H-pyrazolo[4,3-c]pyridine-6-carboxamide]
> 270 | CCn1nc(C(=O)O)cc1-c1nc(-c2nc(C(N)=O)cc3c2cnn3C)n(C)n1 [ZZZ083, 5-[5-(6-carbamoyl-1-methyl-1H-pyrazolo[4,3-c]pyridin-4-yl)-1-methyl-1H-1,2,4-triazol-3-yl]-1-ethyl-1H-pyrazole-3-carboxylic acid]
